In patent US10385005B2, “Compositions and methods for glucose transport inhibition” (OHIO UNIVERSITY, priority 2010, dated 2019):
Where “and” joins values, the source holds several entries; their conditions need not be identical. Equal values may be shown once. Marks after values point to notes of the source that are not given here.

Experiments:
H1299 lung cancer cells = assay: MTT cell growth / viability assay, H1299; assay type: cell-based, human; details: for % cell death: concentration = IC50 for each compound
Procedure: (§1) Briefly, H1299 cancer cells were treated with or without the compounds (30 μM) in triplicates for 10 min before the glucose uptake assay. Cellular glucose uptake was measured by incubating cells in the glucose-free KRP buffer with […] [^3H]2-deoxyglucose (specific activity, 40 Ci/mmol) for 30 min in the absence or presence of compounds. After the cells were washed with ice-cold PBS and lysed by 0.2 N NaOH, the cell lysates were transferred to scintillation counting vials and the radioactivity in the cell lysates was quantified by liquid scintillation counting. Cell growth measurements were performed using an MTT assay in hexads in a 96-well tissue culture plate with 5,000 cells plated in each well. The cells were incubated in presence or absence of the compounds (30 μM) for 48 h. After incubation, cell viabilities were assayed using a 96-well SPECTRAMAX™ absorbance/fluorescence plate reader (Molecular Devices).
(§2) MTT assays are performed by the following well-established method. In a 96 well tissue culture plate 10,000 cells are plated in each well. The cells are incubated in presence or absence of the compounds for 18 h. 3-(4,5-Dimethylthiazol-2-yl)-2,5-diphenyltetrazolium bromide (MTT) is dissolved in PBS (10 mg/ml) and filter sterilized. Three hours before the end of the incubation 20 μL of MTT solution is added to each well containing cells in a 96-well plate. The plate is incubated in an incubator at 37° C. for 3 h. Media is aspirated gently and 200 μL of DMSO is added to each well to dissolve formazan crystals. The absorbance is measured at 550 nm for cell viability.

NL20 normal lung cells = assay: MTT cell death assay, NL20; assay type: cell-based, human; details: concentration = IC50 for each compound
From the text: (§3) Comparative assays using WZB-27, WZB-115, as well as two known anticancer drugs, cisplatin and taxol, were completed. In Table 4, the percent cell death in cancer cell lines as well as normal cell lines is shown. […] Comparing the breast cancer cell line MCF7, WZB-27 and WZB-115 kill somewhat fewer cells relative to taxol but more than cisplatin. Both WZB-27 and WZB-115 kill fewer of the normal breast cell line MCF12A than taxol or cisplatin. WZB-27 kills fewer of the normal breast cell line MCF12A than taxol or cisplatin while WZB-115 kills no more normal cells than either cisplatin or taxol.
as §2

MCF7 breast cancer cells = assay: MTT cell death assay, MCF7; assay type: cell-based, human; details: concentration = IC50 for each compound
From the text: as §3, §2

[1] = system: MCF12A normal breast cells; assay: MTT cell death assay, MCF12A; assay type: cell-based, human; details: concentration = IC50 for each compound
From the text: as §3, §2

basal glucose uptake = assay: Glucose uptake of possible hydrolyzed products (FIG. 2); assay type: cell-based
From the text: (§4) In summary, a library of multiphenolic ester compounds as novel inhibitors of basal glucose transport and anticancer agents with a potential new target, basal glucose transport, were synthesized.

cancer cells = assay: Anticancer screens of hydrolysis products; assay type: cell-based
From the text: as §4

H1299 cells = assay: Standard glucose uptake assay, H1299; assay type: cell-based, human; details: H1299; for glucose uptake inhibition compared with fasentin: all compounds 30 μM, FIG. 22A
Procedure: as §1
Cancer cells are treated with or without the compounds for 10 min before the glucose uptake assay. Cellular glucose uptake will be measured by incubating cells in glucose-free RPMI 1640 with […] [^3H]2-deoxyglucose (specific activity, 40 Ci/mmol) for 30 min in the absence and presence of compounds. After the cells are washed with ice-cold PBS and lysed, the cell lysates will be transferred to scintillation counting vials and the radioactivity in the cell lysates is quantified by liquid scintillation counting.

basal glucose transport = details: known glucose transport inhibitors, positive controls; cited from earlier work
HeLa cells = assay: Glucose uptake assay (3H 2-DG), HeLa; assay type: cell-based, human; details: HeLa, FIG. 8
Procedure: Cells were treated with α-PGG for 20 minutes before ^3H-labeled 2-DG. […] Samples: 1. Mock; 2. […] WZB-25 (30 μM); 5. WZB-26 (30 μM); and 6. WZB-27 (30 μM). Compounds 1a and 2a were initially prepared as potential anti-diabetic analogs of α-PGG (FIG. 1). Given the tight SAR of this class of compounds, it was hypothesized that a more rigid scaffold (i.e., a benzene ring) might enhance the activity. […] Error bars in FIG. 8 represent standard deviations of the measurements. Samples were done in triplicates and the experiment was repeated three times.

[2] = system: RKO and RKO E6 cell lines; assay: Cell killing assay in RKO and RKO E6 cells; assay type: cell-based, human; details: high vs low p53
From the text: A. Cell viability assay in RKO colon cancer cells. RKO cells contain high levels of p53 while RKO E6 cells contain much lower levels of p53. […] RKO cells have higher level of p53 while RKO-E6 is p53 deficient. ***p<0.001, **p<0.01. C.

[3] = system: PARP protein (Caspase 3 substrate) in H1299 lung cancer cells; assay: PARP cleavage assay, H1299; assay type: cell-based, human
From the text: A. Cell viability assay in RKO colon cancer cells with α-PGG, W25 (WZB-25), W27 (WZB-27), and C7 treatments. RKO cells contain high levels of p53 while RKO E6 cells contain much lower levels of p53. B. Apoptosis assay in H1299 lung cancer cells using cleaved PARP protein (89 kDa) as an indicator for Caspase 3 since PARP is a substrate of activated Caspase 3.
To determine if anti-cancer compounds W25 and W27 kill cancer cells using a p53 dependent or a p53-independent pathway, a cell killing assay was performed in RKO and RKO E6 cell lines. The difference between the two cell lines is that RKO cells contain much higher levels of p53 than RKO E6 cells.
Cells were harvested from plates, re-suspended with 3× sample buffer, and boiled for 5 min. Approximately […] of protein extract was loaded after protein concentration measurement by Pierce bicinchoninic acid (BCA) protein assay (Pierce Biotechnology, Inc. Rockford, Ill.). Samples were run on a 10% Bio-Tris NuPAGE gel (Invitrogen) and transferred to a polyvinylidene difluoride membrane (PVDF, Biorad). The membrane was incubated with antibodies specific to p53, or PARP, or β-actin. Specific protein bands were visualized after the development of film. Antibodies for p53 were purchased from Santa Cruz Biotechnology, Inc. (Santa Cruz, Calif., USA). […]

[4] = system: three different cancer cell lines; details: all compounds 60 μM, FIG. 22B
Procedure: Known basal glucose compound fasentin and compound inhibitors generated in house were compared side by side in both glucose uptake assay and cell viability (MTT) assay. Glucose uptake or cell viability of mock treated samples was arbitrarily assigned a value of 100%. A. Glucose uptake assay in H1299 cancer cells. Concentration for all compounds was 30 μM. B. Cell viability assays in three different cancer cell lines. Concentration for all compounds was 60 μM.
Fasentin is a published inhibitor of basal glucose transport and known GLUT1 inhibitor.

[5] = HPLC analysis of compound stability in human serum; assay type: in vitro ADME; details: for Compound concentration (%) after incubation with serum: human serum, 37 C
Procedure: A total of 2.5 ml of compound solution was added to 22.5 ml of human serum and the mixture was incubated at 37 C for various times. The final concentration of the compound in serum was 6.8 mM. After incubation, […] of acetonitrile was added to the mixture, centrifuged to remove proteins before HPLC analysis. The relative concentration of samples at 0 h (in serum but without incubation) was arbitrarily assigned a value of 100% and all other samples were compared to the 0 h samples.

[6] = Table 2, 30 μM, untreated cells 0% inhibition

N.N.[Cl][Pt][Cl] [Cisplatin, cisplatin]
% cell death (H1299 lung cancer cells): 26.4 ± 3.8%
% cell death (NL20 normal lung cells): 58.4 ± 7.0%
% cell death (MCF7 breast cancer cells): 27.0 ± 1.9%
% cell death [1]: 69.6 ± 2.9%

Oc1cccc(F)c1O [Compound 6c]
glucose uptake inhibition activity (basal glucose uptake): none of these compounds had any glucose uptake inhibition activity
activity in anticancer screens (cancer cells): none of these compounds showed any activity in anticancer screens

COc1cc(C(=O)Oc2ccc(Cl)cc2OC(=O)c2cc(OC)c(OC)c(OC)c2)cc(OC)c1OC [Compound 7b]
level of glucose transport inhibition (in words) (H1299 cells; 30 μM): dramatically decreased
Glucose transport inhibition (%) (H1299 cells; [6]): 1.7 ± 1.1%
Cell growth inhibition (%) (H1299 lung cancer cells; Table 2, 30 μM, 48 h): 20.6 ± 2.1%

COc1cc(C(=O)Oc2cccc(F)c2OC(=O)c2cc(OC)c(OC)c(OC)c2)cc(OC)c1OC [Compound 7c]
level of glucose transport inhibition (in words) (H1299 cells; 30 μM, listed as WZB-101): dramatically decreased levels of activity
Glucose transport inhibition (%) (H1299 cells; [6]): 7.9 ± 2.6%
Cell growth inhibition (%) (H1299 lung cancer cells; Table 2, 30 μM, 48 h): 19.6 ± 3.6%

COc1cccc(C(=O)Oc2cccc(OC)c2OC(=O)c2cccc(OC)c2)c1 [Compound 7d]
Glucose transport inhibition (%) (H1299 cells; [6]): 32.1 ± 0.2%
Cell growth inhibition (%) (H1299 lung cancer cells; Table 2, 30 μM, 48 h): 18.3 ± 4.3%

Oc1cccc(O)c1O [Compound 8, pyrogallol]
glucose uptake inhibition activity (basal glucose uptake): none of these compounds had any glucose uptake inhibition activity
activity in anticancer screens (cancer cells): none of these compounds showed any activity in anticancer screens

CC(=O)CC(=O)Nc1ccc(Cl)c(C(F)(F)F)c1 [Fasentin, fasentin]
IC50 (basal glucose transport): ≥ 50 µM

CC(=O)O[C@H]1C(=O)[C@@]2(C)[C@H]([C@H](OC(=O)c3ccccc3)[C@]3(O)C[C@H](OC(=O)[C@H](O)[C@@H](NC(=O)c4ccccc4)c4ccccc4)C(C)=C1C3(C)C)[C@]1(OC(C)=O)CO[C@@H]1C[C@@H]2O [Taxol, taxol]
% cell death (H1299 lung cancer cells): 45.6 ± 4.9%
% cell death (NL20 normal lung cells): 53.8 ± 4.2%
% cell death (MCF7 breast cancer cells): 61.4 ± 7.1%
% cell death [1]: 73.7 ± 5.6%

O=C(O[C@@H]1[C@@H](OC(=O)c2cc(O)c(O)c(O)c2)[C@@H]2OC[C@@H](O2)[C@H]1OC(=O)c1cc(O)c(O)c(O)c1)c1cc(O)c(O)c(O)c1 [WZB-25]
dose dependence of basal glucose transport inhibition (HeLa cells): dose-dependent manner
cell killing / viability RKO vs RKO E6 [2]: killed about the same amounts of RKO cells and RKO E6 cells
PARP cleavage [3]: cleaved into a 89 kDa protein

O=C(Nc1ccc(F)cc1NC(=O)c1cccc(O)c1)c1cccc(O)c1 [WZB-124]
Glucose transport inhibition (%) (H1299 cells; Table 12): 89.7 ± 2.5^b %
Cell growth inhibition (%) (H1299 lung cancer cells; Table 12): 5.7 ± 2.1%

O=C(Nc1ccc(Cl)cc1NC(=O)c1cccc(O)c1)c1cccc(O)c1 [WZB-125]
Glucose transport inhibition (%) (H1299 cells; Table 12): 83.7 ± 0.7%
Cell growth inhibition (%) (H1299 lung cancer cells; Table 12): 5.9 ± 1.4%

Oc1cccc(COc2cccc(OCc3cccc(O)c3)c2OCc2cccc(O)c2)c1 [WZB-131]
glucose uptake inhibition compared with fasentin (H1299 cells): stronger inhibition than fasentin
Glucose transport inhibition (%) (H1299 cells; Table 12): 95.0 ± 1.6%
Cell growth inhibition (%) (H1299 lung cancer cells; Table 12): 12.9 ± 2.6%
cancer cell death compared with fasentin [4]: more cancer cell death than fasentin

COc1cccc(OCc2cccc(O)c2)c1OCc1cccc(O)c1 [WZB-132]
Glucose transport inhibition (%) (H1299 cells; Table 12): 60.0 ± 7.7%
Cell growth inhibition (%) (H1299 lung cancer cells; Table 12): 6.0 ± 2.2%

Oc1cccc(COc2ccc(Cl)cc2OCc2cccc(O)c2)c1 [WZB-133]
glucose uptake inhibition compared with fasentin (H1299 cells): stronger inhibition than fasentin
Glucose transport inhibition (%) (H1299 cells; Table 12): 91.2 ± 0.8%
Cell growth inhibition (%) (H1299 lung cancer cells; Table 12): 14.3 ± 2.7%
cancer cell death compared with fasentin [4]: more cancer cell death than fasentin

Oc1cccc(COc2cccc(F)c2OCc2cccc(O)c2)c1 [WZB-134]
Glucose transport inhibition (%) (H1299 cells; Table 12): 92.5±2.2% and 92.6 ± 2.2%
Cell growth inhibition (%) (H1299 lung cancer cells; Table 12): 10.6±2.0%

Oc1cccc(COc2ccc(Cl)c(OCc3cccc(O)c3)c2)c1 [WZB-141]
Glucose transport inhibition (%) (H1299 cells; Table 12): 96.5±0.5%
Cell growth inhibition (%) (H1299 lung cancer cells; Table 12): 39.5±1.8%
Compound concentration (%) after incubation with serum ([5]; 0 h (arbitrarily assigned 100%)): 100%
Compound concentration (%) after incubation with serum ([5]; 4 h): 103.5%
Compound concentration (%) after incubation with serum ([5]; 24 h): 109.7%
Compound concentration (%) after incubation with serum ([5]; 48 h): 87.4%
relative stability in serum ([5]; ether vs ester bond-containing compounds): much more stable in serum than ester bond-containing compounds WZB-115 and WZB-117
Compound concentration (%) after incubation with serum ([5]; l h): 100.3%

CN(C(=O)c1cccc(O)c1)c1ccc(Cl)cc1N(C)C(=O)c1cccc(O)c1 [WZB-142]
Glucose transport inhibition (%) (H1299 cells; Table 12): 82.7 ± 6.8%
Cell growth inhibition (%) (H1299 lung cancer cells; Table 12): 14.2 ± 9.0%

CN(C(=O)c1cccc(O)c1)c1ccc(F)cc1N(C)C(=O)c1cccc(O)c1 [WZB-143]
Glucose transport inhibition (%) (H1299 cells; Table 12): 85.7 ± 3.6%
Cell growth inhibition (%) (H1299 lung cancer cells; Table 12): 31.1 ± 7.9%

CN(Cc1cccc(O)c1)c1ccc(F)cc1N(C)Cc1cccc(O)c1 [WZB-144]
Glucose transport inhibition (%) (H1299 cells; Table 12): 78.2±1.4%
Cell growth inhibition (%) (H1299 lung cancer cells; Table 12): 14.5±7.6%

CN(Cc1cccc(O)c1)c1ccc(Cl)cc1N(C)Cc1cccc(O)c1 [WZB-145]
Glucose transport inhibition (%) (H1299 cells; Table 12): 73.2 ± 3.8%
Cell growth inhibition (%) (H1299 lung cancer cells; Table 12): 38.2 ± 6.6%

O=c1cc(-c2ccc(O)cc2)oc2cc(O)cc(O)c12 [apigenin]
IC50 (basal glucose transport): ≥ 60 µM
